Data on one compound can be found in ChEMBL document CHEMBL3045199, “Synthesis of some (E)-6-[2-(furan-2-yl)ethenyl]-1,2,4-triazin-5-ones and their biological evaluation as antitumor agents” (2013).

Holding throughout (format): functional
For one experiment, the system named is HCT-116. Briefly: Cytotoxicity against Homo sapiens (human) HCT116 cells assessed as growth inhibition at 10 uM after 24 hr. The conditions noted are these: HCT-116, 24 h, read-out: GI.
The subject of a further experiment is NCI-H226. Briefly: Cytotoxicity against Homo sapiens (human) NCI-H226 cells assessed as growth inhibition at 10 uM after 24 hr. The conditions noted are these: NCI-H226, 24 h, read-out: GI.
The test system of the next experiment is NCI-H23. Kind of experiment: Cytotoxicity against Homo sapiens (human) NCI-H23 cells assessed as growth inhibition at 10 uM after 24 hr. Particulars: NCI-H23, 24 h, read-out: GI.
The subject of another experiment is SK-OV-3. Briefly: Cytotoxicity against Homo sapiens (human) SKOV3 cells assessed as growth inhibition at 10 uM after 24 hr. The conditions noted are these: SK-OV-3, 24 h, read-out: GI.
For another experiment, the system named is MCF7. Kind of experiment: Cytotoxicity against Homo sapiens (human) MCF7 cells assessed as growth inhibition at 10 uM after 24 hr. The conditions noted are these: MCF7, 24 h, read-out: GI.
A short description of experiment [1]: Cytotoxicity against Homo sapiens (human) ovarian cancer cells after 48 hr by SRB assay. Particulars: Cancer cell lines.
Experiment [2] can be described thus: Cytotoxicity against Homo sapiens (human) colon cancer cells after 48 hr by SRB assay. The conditions noted are these: Cancer cell lines. In general terms: In SRB staining, fixed cells bind dye roughly in proportion to their protein.
A further experiment concerns K562. Briefly: Cytotoxicity against Homo sapiens (human) K562 cells assessed as growth inhibition at 10 uM after 24 hr. Particulars: K562, 24 h, read-out: GI.
The subject of the next experiment is SF-268. Briefly: Cytotoxicity against Homo sapiens (human) SF268 cells assessed as growth inhibition at 10 uM after 24 hr. Particulars: SF-268, 24 h, read-out: GI.
In a further experiment the test system is RPMI-8226. Kind of experiment: Cytotoxicity against Homo sapiens (human) RPMI8226 cells assessed as growth inhibition at 10 uM after 24 hr. The conditions noted are these: RPMI-8226, 24 h, read-out: GI.
Another experiment deals with OVCAR-4. Kind of experiment: Cytotoxicity against Homo sapiens (human) OVCAR4 cells assessed as growth inhibition at 10 uM after 24 hr. The conditions noted are these: OVCAR-4, 24 h, read-out: GI.
Experiment [3] in a line: Cytotoxicity against Homo sapiens (human) leukemia cells after 48 hr by SRB assay. The conditions noted are these: Leukemia cell.
The mark [4] stands for this setting: read-out: LC50 (the source's name).

As usually defined, the GI50 is the concentration at which growth is held to half of that of the control. A low value points to more potent growth inhibition. In general, TGI refers to the concentration giving total growth inhibition. A high value points to less potent growth arrest. With `Nc1cc(-c2ccc(Cl)cc2)nn1-c1nc(=O)c(/C=C/c2ccco2)n[nH]1`, the inhibition of growth at 10 µM in the experiment on HCT-116 was 59%; in the experiment with NCI-H226, 52.6%; in the experiment on NCI-H23, 41.2%; with SK-OV-3 it was 39.3%; in the experiment on MCF7 it was 54.1%; in the experiment on K562, 58.3%. Besides, the values for the inhibition of growth at 10 µM in the experiment with SF-268, in the experiment on RPMI-8226 and with OVCAR-4 were 47.5%, 56.7% and 70.9%, respectively. Moreover, the GI50 in [1] stood at 3.8 µM; in experiment [2] it was 4.27 µM; in [3] it was 2.71 µM. In addition, the TGI in experiment [1] came out at 43.1 µM; in experiment [2], 22 µM; in experiment [3], 17.9 µM. Further, the CC50 in experiment [1] (setting [4]) was 89.7 µM; in [2] (setting [4]), above 100 µM; in experiment [3] (setting [4]), above 100 µM.
